According to patent US9730906B2, “α-derivatives of cis-monounsaturated fatty acids for use as medicines” (UNIVERSITAT DE LES ILLES BALEARS, priority 2008, dated 2017):
Read-outs that look alike come from different tables or passages of the source.

What was measured:
hypertensive rats = assay: Arterial pressure in hypertensive rats after 8-day treatment (Table 5); assay type: in vivo, rat
SF767 human tumour cells = assay: Growth of SF767 tumour cells in culture; assay type: cell-based
Experimental: In a second experimental series, designed to discover whether these molecules are effective in treatment of different types of tumours, the effect of OHOD at various concentrations on human cells of different types of cancer was studied. These experiments were performed as described before, except that the M220 and HT-29 cell lines were cultured in DMEM medium and the MDA-MB-231 line was incubated in Leibowitz L-15 medium supplemented with 15% foetal bovine […]. […] Where the nature of the tumour process requires, application can be topical (use on the skin of active products for the treatment of melanoma and other cutaneous abnormalities of cancerous nature), which can be considered as cosmetic treatments when attempts are made to correct aesthetic defects.

A549 cells = assay: Growth/viability of A549 lung cancer cells in culture (cell count); assay type: cell-based, human; settings: for tumour cell growth (number of cells, percent of untreated): 150 μM, 48 hours, A549
Experimental: FIG. 3A. Cancer cells (A549) were treated with various concentrations of OHOD and MOD11 to determine whether the effect was dependent on the concentration. […] These cells were treated with different concentrations (0-400 μM) of OHOD and MOD11 and the number of cells was determined by flow cytometry.
FIG. 3B. Cancer cells (A549) were treated with compounds indicated on the horizontal axis for 48 hours at 150 μM. Then, the cells were counted and their number and percent of untreated (control) represented on the vertical axis.
Also, a series of α-derivatives of cis-monounsaturated fatty acids were used to investigate their effectiveness in cancer treatment. Two types of experiment were performed. Firstly, the dependency of the anti-tumour effect on concentration was investigated. To perform these experiments, human lung cancer cells (A549) were cultivated in RPMI medium, supplemented with 10% foetal bovine […], 10 mM Hepes (pH 7.4), 2 mM glutamine, 2 g/l bicarbonate, 1 g/l glucose, 100 units/ml penicillin, 0.1 mg/ml streptomycin, 0.25 μg/ml Amphotericin B, at 37° C. and in the presence of 5% CO2. In a first experimental series, these cells were treated with various concentrations (0-400 μM) of OHOD and MOD11 and the number of cells was determined by flow cytometry (FIG. 3A). […] In a second series, the anti-tumour effectiveness on A549 lung cancer cells was investigated at a single concentration (150 μM) and a time of 48 hours (FIG. 3B). […] Obviously, among the previous molecules, some lacked both modifications on the α-carbon and the double bond in cis configuration (EO, HDO, ODO) and had no therapeutic effect. […]

[1] = Body weight of rats on cafeteria diet, no pre-treatment (Table 5); assay type: in vivo, rat
Description: (§1) The weight of treated animals was statistically less than the weight of obese control rats and statistically indistinguishable from that of lean control rats.

[2] = Levels of cholesterol, triglycerides and glucose in rats after oral treatment; assay type: in vivo, rat
Experimental: FIG. 13. The four bars, from left to right respectively, show the effect of treatments with vehicle (control, first bar), OHOD at 200 mg/kg (second bar), OHOD at 400 mg/kg (third bar) and OHOD at 600 mg/kg (fourth bar) on the cholesterol levels (group of four bars to the left), triglycerides (group of four bars in the middle) and glucose (group of four bars to the right). The treatments were oral in all cases and were maintained for 30 days. The values indicated are the average obtained in 6 animals per group.
FIG. 14. Effect of treatment with vehicle (control) or with the fatty acids of the invention (600 mg/kg) on the levels of cholesterol, triglycerides and glucose. The values indicated are the average of the values obtained in 6 animals. Each group of three bars represents treatment with a different fatty acid with the left bar corresponding to cholesterol, the middle bar to triglycerides and the right bar to glucose.
Metabolic diseases form a set of pathologies characterised by the accumulation or deficit of certain molecules (cholesterol, triglycerides, glucose, etc.) in the serum or tissues. These changes are the reflection of dysfunctions that are normally associated with errors in the activity of certain enzymes or in the control of these proteins. Among the most important metabolopathies are hypercholesterolemia (elevated levels of cholesterol), hypertriglyceridemia (elevated levels of triglycerides) and diabetes (elevated levels of glucose). These pathologies have high rates of incidence, morbidity and mortality, so that treatment is a first order necessity. […] For these experiments, the dose of fatty acid indicated (0, 200, 400 and 600 mg/kg) was supplied daily via the oral route. At the end of the treatment (30 days), blood was sampled from control and treated animals (n=6) and the levels of cholesterol, triglycerides and glucose were determined using standard colorimetric methods.
(§2) In a further experiment, the effect of various molecules at a single dose (600 mg/kg) was investigated. […] In this sense, modification on the α-carbon and the double bond in cis configuration are crucial elements for producing the therapeutic effect indicated above. […] Finally, the effect of α-derivatives of cis-monounsaturated fatty acids on the prevention of obesity was investigated. For this, a model of rat obesity induced by a cafeteria diet, where the hypercaloric food increases the weight of the animals very markedly, was used. There were various experimental groups (see Table 3), each of which consisted of 6 female Wistar Kyoto rats of 250-300 g in weight. All the animals received a standard diet for 2 weeks. In addition, 2 of the groups received an oral preventative pre-treatment of vehicle and the other groups received 300 mg/kg of the fatty acids indicated below. Afterwards, one of the control groups was maintained on a standard diet (lean control) and the other was fed on a cafeteria diet (obese control). The treated animal groups were fed on the cafeteria diet. Preventative pre-treatment was maintained for all the groups. After two weeks on these diets, the lean control group had increased their body weight by an average of 16±16 g, while the obese control group had increased their body weight by an average of 43±17 g (statistically significance difference, p<0.01).

[3] = Rat obesity induced by cafeteria diet, preventative pre-treatment (Table 3); assay type: in vivo, Wistar Kyoto rats; settings: 300 mg/kg oral, after two weeks on cafeteria diet; obese control 308 ± 17, lean control 280 ± 16; * lower than obese controls, ‡ indistinguishable
Experimental: as §2, §1

[4] = arterial pressure, hypertensive rats, 8-day treatment, 400 mg/kg oral
[5] = concentration that reduces the number of cells to half
[6] = cafeteria diet for 2 weeks, 300 mg/kg daily oral, no pre-treatment
[7] = rats, daily dose of 600 mg/kg oral, untreated controls = 100%

Row | Compound | IC50 (SF767 human tumour cells; [5]) | IC50 (A549 cells; [5]) | PA (control 214 mmHg) (hypertensive rats; [4]) | Body weight (g) (control = 311 g) [1, 6] | % control CHO (cholesterol) [2, 7] | % control TG (triglycerides) [2, 7] | Final weight [3] | tumour cell growth (number of cells, percent of untreated) (A549 cells) | also measured
1 | CCCCCCCC/C=C\CCCCCCC(OP(=O)(OCC)OCC)C(=O)[O-].[Na+] (stereo not drawn) [Na-DEPOD] | 104 µM | 32 µM | 159 mmHg | 298 g | 45 % control | 37 % control | – | – | –
2 | Trans-Hexadecenoic [HD, reference compound] | – | – | – | – | – | – | 309 ± 15‡ g | did not show anti-tumour effectiveness | –
3 | CCCCCCCC/C=C/CCCCCCCC(=O)O [OD, Trans-Octadecenoic, reference compound] | – | – | – | – | – | – | 311 ± 17‡ g | did not show anti-tumour effectiveness | –
4 | CCCCCCCCCCCCCCCC(=O)O [HDO, Hexadecanoic, reference compound] | – | – | – | – | – | – | 299 ± 15‡ g | did not show anti-tumour effectiveness | –
5 | Cis-Docosenoic [DE, reference compound] | – | – | – | – | – | – | 305 ± 12‡ g | did not show anti-tumour effectiveness | –
6 | CCCCCCCCCCCCCCCCC(O)C(=O)O (stereo not drawn) [OHS, α-Hydroxy-octadecanoic, reference compound] | – | – | – | – | – | – | 314 ± 11‡ g | lacked anti-tumour effectiveness | –
7 | CCCCCCCCCCCCCCCCCCCC(=O)O [EO, Eicosanoic, reference compound] | – | – | – | – | – | – | 298 ± 12‡ g | did not show anti-tumour effectiveness | –
8 | CCCCCCCCCCCCCCCCCC(=O)O [ODO, Octadecanoic, reference compound] | – | – | – | – | – | – | 301 ± 18‡ g | did not show anti-tumour effectiveness | –
9 | CCCCCCCC/C=C\CCCCCCC(OP(=O)(OCC)OCC)C(=O)O (stereo not drawn) [DEPOD, α-diethyl-phosphatidyl-cis-Δ9-octadecenoic] | – | – | – | – | – | – | – | – | PA (control 214 mmHg) (hypertensive rats; rat, in vivo, po, 400 mg/kg): 147 mmHg; IC50 (SF767 human tumour cells): 99 µM; IC50 (A549 cells): 57 µM; Body weight (g) (control = 311 g) ([1]; rat, in vivo): 301 g; % control CHO (cholesterol) ([2]; rat, in vivo, po, 600 mg/kg): 58 % control; % control TG (triglycerides) ([2]; rat, in vivo, po, 600 mg/kg): 43 % control
10 | Cis-Eicosenoic [EE, reference compound] | – | – | – | – | – | – | 301 ± 17‡ g | did not show anti-tumour effectiveness | –
11 | CCCCCCCC/C=C/CCCCCCC(O)C(=O)O (stereo not drawn) [tOHOD, α-Hydroxy-trans-octadecenoic, reference compound] | – | – | – | – | – | – | 312 ± 19‡ g | lacked anti-tumour effectiveness | –

More lines, main results first:

Row | IC50 (SF767 human tumour cells; [5]) | IC50 (A549 cells; [5]) | Compound | PA (control 214 mmHg) (hypertensive rats; [4]) | Body weight (g) (control = 311 g) [1, 6] | % control CHO (cholesterol) [2, 7] | % control TG (triglycerides) [2, 7] | Final weight [3] | tumour cell growth (number of cells, percent of untreated) (A549 cells) | also measured
12 | 195 µM | 168 µM | CCCCCCCC/C=C\CCCCCCC(OC)C(=O)OCC (stereo not drawn) [EE-MOOD] | 154 mmHg | 297 g | 64 % control | 66 % control | – | – | –
13 | 43 µM | 66 µM | CCCCCCCC/C=C\CCCCCCC(OP(=O)(OCC)OCC)C(=O)OC (stereo not drawn) [OMe-DEPOD] | 175 mmHg | 293 g | 63 % control | 45 % control | – | – | –
14 | 128 µM | 149 µM | CCCCCCCC/C=C\CCCCCCC(OC)C(=O)OC (stereo not drawn) [OMe-MOOD] | 143 mmHg | 296 g | 77 % control | 69 % control | – | – | –
15 | 214 µM | 246 µM | CCCCCCCC/C=C\CCCCCCC(OC(C)=O)C(=O)OC (stereo not drawn) [OMe- ACOD] | 152 mmHg | 296 g | 86 % control | 74 % control | – | – | –
16 | 91 µM | 77 µM | CCCCCCCC/C=C\CCCCCCC(OC)C(=O)[O-].[Na+] (stereo not drawn) [Na-MOOD] | 131 mmHg | 272 g | 63 % control | 68 % control | – | – | –
17 | 176 µM | 185 µM | CCCCCCCC/C=C\CCCCCCC(OC(C)=O)C(=O)OCC (stereo not drawn) [EE- ACOD] | 158 mmHg | 294 g | 72 % control | 56 % control | – | – | –
18 | 107 µM | 94 µM | CCCCCCCC/C=C\CCCCCCC(O)C(=O)OC (stereo not drawn) [OMe-OHOD] | 155 mmHg | 299 g | 71 % control | 64 % control | – | – | –
19 | 179 µM | 153 µM | CCCCCCCC/C=C\CCCCCCC(C(C)=O)C(=O)O (stereo not drawn) [ACOD, α-Acetyl-cis-Δ9-octadecenoic] | 157 mmHg | 301 g | 59 % control | 53 % control | – | – | –
20 | 82 µM | 77 µM | CCCCCCCC/C=C\CCCCCCC(OP(=O)(OCC)OCC)C(=O)OCC (stereo not drawn) [EE-DEPOD] | 168 mmHg | 295 g | 69 % control | 49 % control | – | – | –
21 | 132 µM | 124 µM | CCCCCCCC/C=C\CCCCCCC(OC(C)=O)C(=O)[O-].[Na+] (stereo not drawn) [Na-ACOD] | 166 mmHg | 298 g | 49 % control | 35 % control | – | – | –
22 | 68 µM | 79 µM | CCCCCCCCC=CCCCCCCC(O)C(=O)OCC (stereo not drawn) [EE-OHOD] | 161 mmHg | 295 g | 62 % control | 47 % control | – | – | –
